≈ marks a conversion by molar mass, not a printed value.
What was measured:
Format in all cases: functional
Streptococcus pyogenes [1] = experiment: Antibacterial activity against efflux-resistant Streptococcus pyogenes B0545 by agar microdilution method
Streptococcus pyogenes [2] = experiment: Antibacterial activity against constitutive macrolide-lincosamide-streptogramin B-resistant Streptococcus pyogenes B0544 by agar microdilution method
Staphylococcus aureus [3] = experiment: Antibacterial activity against erythromycin A-susceptible Staphylococcus aureus B0329 by agar microdilution method
Streptococcus pyogenes [4] = experiment: Antibacterial activity against inducible macrolide-lincosamide-streptogramin B-resistant Streptococcus pyogenes B0543 by agar microdilution method
Staphylococcus aureus [5] = experiment: Antibacterial activity against inducible macrolide-lincosamide-streptogramin B-resistant Staphylococcus aureus B0538 by agar microdilution method
Staphylococcus aureus [6] = experiment: Antibacterial activity against constitutive macrolide-lincosamide-streptogramin B-resistant Staphylococcus aureus B0330 by agar microdilution method
Streptococcus pneumoniae [7] = experiment: Antibacterial activity against constitutive macrolide-lincosamide-streptogramin B-resistant Streptococcus pneumoniae B0627 by agar microdilution method
Streptococcus pneumoniae [8] = experiment: Antibacterial activity against efflux-resistant Streptococcus pneumoniae B0326 by agar microdilution method
Streptococcus pyogenes [9] = experiment: Antibacterial activity against erythromycin A-susceptible Streptococcus pyogenes B0542 by agar microdilution method
Streptococcus pneumoniae [10] = experiment: Antibacterial activity against erythromycin A-susceptible Streptococcus pneumoniae B0541 by agar microdilution method
Moraxella catarrhalis = experiment: Antibacterial activity against Moraxella catarrhalis B0324 by agar microdilution method
Haemophilus influenzae = experiment: Antibacterial activity against Haemophilus influenzae B0529 by agar microdilution method
Staphylococcus aureus [11] = experiment: Antibacterial activity against efflux-resistant Staphylococcus aureus B0331 by agar microdilution method

| Structure (SMILES) | MIC (Streptococcus pyogenes [1]) [µg/mL] | MIC (Streptococcus pyogenes [2]) [µg/mL] | MIC (Staphylococcus aureus [3]) [µg/mL] | MIC (Streptococcus pyogenes [4]) [µg/mL] | MIC (Staphylococcus aureus [5]) [µg/mL] | MIC (Staphylococcus aureus [6]) [µg/mL] | MIC (Streptococcus pneumoniae [7]) [µg/mL] | MIC (Streptococcus pneumoniae [8]) [µg/mL] | MIC (Streptococcus pyogenes [9]) [µg/mL] | MIC (Streptococcus pneumoniae [10]) [µg/mL] | MIC (Moraxella catarrhalis) [µg/mL] | MIC (Haemophilus influenzae) [µg/mL] | MIC (Staphylococcus aureus [11]) [µg/mL] |
| --- | --- | --- | --- | --- | --- | --- | --- | --- | --- | --- | --- | --- | --- |
| CC[C@H]1OC(=O)[C@H](C)C(=O)[C@H](C)[C@@H](O[C@@H]2O[C@H](C)C[C@H](N(C)C)[C@H]2O)[C@](C)(OC/C=C/c2cnc3ccccc3c2)C[C@@H](C)C(=O)N[C@H](C)[C@H](O)[C@@]1(C)O | 4 (≈ 5.29 µM) | > 64 | 8 (≈ 10.6 µM) | 64 (≈ 84.7 µM) | 16 (≈ 21.2 µM) | > 64 | 64 (≈ 84.7 µM) | 8 (≈ 10.6 µM) | 0.5 (≈ 0.661 µM) | 2 (≈ 2.65 µM) | 2 (≈ 2.65 µM) | 32 (≈ 42.3 µM) | 16 (≈ 21.2 µM) |
| C=CCO[C@]1(C)C[C@@H](C)NC(=O)[C@H](C)[C@H](O)[C@@](C)(O)[C@@H](CC)OC(=O)[C@H](C)C(=O)[C@H](C)[C@H]1O[C@@H]1O[C@H](C)C[C@H](N(C)C)[C@H]1O | 8 (≈ 12.7 µM) | > 64 | 2 (≈ 3.18 µM) | 16 (≈ 25.4 µM) | 2 (≈ 3.18 µM) | > 64 | > 64 | 16 (≈ 25.4 µM) | 0.25 (≈ 0.398 µM) | ≤ 0.125 | ≤ 0.125 | 16 (≈ 25.4 µM) | 8 (≈ 12.7 µM) |
| CC[C@H]1OC(=O)[C@H](C)C(=O)[C@H](C)[C@@H](O[C@@H]2O[C@H](C)C[C@H](N(C)C)[C@H]2O)[C@](C)(OC/C=C/c2cccc3ccccc23)C[C@@H](C)NC(=O)[C@H](C)[C@H](O)[C@@]1(C)O | 2 (≈ 2.65 µM) | > 64 | 1 (≈ 1.32 µM) | 4 (≈ 5.3 µM) | 2 (≈ 2.65 µM) | > 64 | > 64 | 2 (≈ 2.65 µM) | 0.25 (≈ 0.331 µM) | ≤ 0.125 | 0.25 (≈ 0.331 µM) | 8 (≈ 10.6 µM) | 4 (≈ 5.3 µM) |
| CC[C@H]1OC(=O)[C@H](C)C(=O)[C@H](C)[C@@H](O[C@@H]2O[C@H](C)C[C@H](N(C)C)[C@H]2O)[C@](C)(OC/C=C/c2cnc3ccccc3c2)C[C@@H](C)NC(=O)[C@H](C)[C@H](O)[C@@]1(C)O | 1 (≈ 1.32 µM) | 8 (≈ 10.6 µM) | 1 (≈ 1.32 µM) | 1 (≈ 1.32 µM) | 0.5 (≈ 0.661 µM) | > 64 | 16 (≈ 21.2 µM) | 0.5 (≈ 0.661 µM) | ≤ 0.125 | ≤ 0.125 | 0.25 (≈ 0.331 µM) | 4 (≈ 5.29 µM) | 0.5 (≈ 0.661 µM) |
| CC[C@H]1OC(=O)[C@H](C)C(=O)[C@H](C)[C@@H](O[C@@H]2O[C@H](C)C[C@H](N(C)C)[C@H]2O)[C@](C)(OC/C=C/c2ccnc3ccccc23)C[C@@H](C)NC(=O)[C@H](C)[C@H](O)[C@@]1(C)O | 2 (≈ 2.65 µM) | 16 (≈ 21.2 µM) | 0.5 (≈ 0.661 µM) | 2 (≈ 2.65 µM) | 1 (≈ 1.32 µM) | > 64 | > 64 | 1 (≈ 1.32 µM) | 0.25 (≈ 0.331 µM) | ≤ 0.125 | 0.5 (≈ 0.661 µM) | 4 (≈ 5.29 µM) | 2 (≈ 2.65 µM) |
| CC[C@H]1OC(=O)[C@H](C)C(=O)[C@H](C)[C@@H](O[C@@H]2O[C@H](C)C[C@H](N(C)C)[C@H]2O)[C@](C)(OC/C=C/c2cnc3ccccc3c2)C[C@@H](C)C(=O)N[C@H](C)[C@H](O)[C@@]1(C)OC/C=C/c1cnc2ccccc2c1 | 0.5 (≈ 0.542 µM) | 8 (≈ 8.67 µM) | ≤ 0.125 | 0.5 (≈ 0.542 µM) | 0.25 (≈ 0.271 µM) | > 64 | 4 (≈ 4.33 µM) | 0.5 (≈ 0.542 µM) | ≤ 0.125 | ≤ 0.125 | 0.125 (≈ 0.135 µM) | 4 (≈ 4.33 µM) | 0.5 (≈ 0.542 µM) |
| CC[C@H]1OC(=O)[C@H](C)C(=O)[C@H](C)[C@@H](O[C@@H]2O[C@H](C)C[C@H](N(C)C)[C@H]2O)[C@](C)(OCC(O)CNCCc2ccccc2)C[C@@H](C)NC(=O)[C@H](C)[C@H](O)[C@@]1(C)O (some centres undefined) | 1 (≈ 1.31 µM) | 16 (≈ 20.9 µM) | 4 (≈ 5.22 µM) | 1 (≈ 1.31 µM) | 16 (≈ 20.9 µM) | > 64 | 8 (≈ 10.4 µM) | 16 (≈ 20.9 µM) | 0.5 (≈ 0.653 µM) | 0.25 (≈ 0.326 µM) | 0.5 (≈ 0.653 µM) | 16 (≈ 20.9 µM) | 8 (≈ 10.4 µM) |
| CC[C@H]1OC(=O)[C@H](C)C(=O)[C@H](C)[C@@H](O[C@@H]2O[C@H](C)C[C@H](N(C)C)[C@H]2O)[C@](C)(OCC(O)CN(C)CCc2ccc([N+](=O)[O-])cc2)C[C@@H](C)NC(=O)[C@H](C)[C@H](O)[C@@]1(C)O (some centres undefined) | 0.25 (≈ 0.303 µM) | 1 (≈ 1.21 µM) | ≤ 0.125 | 0.25 (≈ 0.303 µM) | 0.5 (≈ 0.606 µM) | > 64 | ≤ 0.125 | 0.5 (≈ 0.606 µM) | ≤ 0.125 | ≤ 0.125 | ≤ 0.125 | 1 (≈ 1.21 µM) | 1 (≈ 1.21 µM) |
